# Measured values taken from the supplement of paper PMC10307832.
# Legend:
# Experiment in all cases: relative viability (nuclei count vs DMSO), 5 days (fraction); higher = more cells survive
# [1] = compound: CC(=O)Nc1cccc(-n2c(=O)n(C3CC3)c(=O)c3c(Nc4ccc(I)cc4F)n(C)c(=O)c(C)c32)c1 [Trametinib] + Cc1cc(Nc2cc(N3CCN(C)CC3)nc(Sc3ccc(NC(=O)C4CC4)cc3)n2)n[nH]1 [Tozasertib] (partner 0.1 µM)
# How it was run: (§1)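 Dosing by pin tool came one day after lung cancer cell lines were seeded in 1536-well plates, using either one drug or a fixed anchor-drug dose plus five library-drug doses (not always all listed) in √10 steps. After 5 days, nuclei were counted on 4× images. Relative viability is treated-well nuclei count divided by vehicle-well nuclei count, and values are medians of duplicate plates.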
# [2] = compound: CN1C=C(C2=CC=CC=C21)/C=C\3/C4=C(C=CC=N4)NC3=O + COc1cc2c(Oc3ccc(NC(=O)C4(C(=O)Nc5ccc(F)cc5)CC4)cc3F)ccnc2cc1OCCCN1CCOCC1 [Foretinib] (partner 0.25 µM)
# How it was run: as §1
# [3] = compound: CN1C=C(C2=CC=CC=C21)/C=C\3/C4=C(C=CC=N4)NC3=O + COc1cccc2cc(-c3nc([C@H]4CC[C@H](C(=O)O)CC4)n4ncnc(N)c34)[nH]c12 [OSI-027] (partner 0.5 µM)
# How it was run: as §1
# [4] = compound: CN1C=C(C2=CC=CC=C21)/C=C\3/C4=C(C=CC=N4)NC3=O + NC(=O)Nc1cc(-c2cccc(F)c2)sc1C(=O)N[C@H]1CCCNC1 [AZD7762] (partner 0.2 µM)
# How it was run: as §1
Cell Line,relative viability ([1]; first compound 0.0025 µM),relative viability ([1]; first compound 0.007906 µM),relative viability ([1]; first compound 0.025 µM),relative viability ([1]; first compound 0.07906 µM),relative viability ([1]; first compound 0.25 µM),relative viability ([2]; first compound 0.02 µM),relative viability ([2]; first compound 0.06325 µM),relative viability ([2]; first compound 0.2 µM),relative viability ([2]; first compound 0.6325 µM),relative viability ([2]; first compound 2 µM),relative viability ([3]; first compound 0.02 µM),relative viability ([3]; first compound 0.06325 µM),relative viability ([3]; first compound 0.2 µM),relative viability ([3]; first compound 0.6325 µM),relative viability ([3]; first compound 2 µM),relative viability ([4]; first compound 0.02 µM),relative viability ([4]; first compound 0.06325 µM),relative viability ([4]; first compound 0.2 µM),relative viability ([4]; first compound 0.6325 µM),relative viability ([4]; first compound 2 µM)
NCI-H441,0.647,0.677,0.523,0.461,0.525,0.943,0.772,0.967,1.02,0.984,0.557,0.646,0.739,0.607,0.459,1.15,1.21,1.19,1.06,1.05
NCI-H520,0.388,0.46,0.473,0.469,0.362,0.639,0.773,0.847,0.717,0.937,0.199,0.223,0.289,0.275,0.266,,,,,
CAL-12T,0.275,0.273,0.196,0.199,0.202,1.08,1.03,1.08,1.08,1.03,0.628,0.47,0.525,0.645,0.53,0.586,0.612,0.623,0.643,0.612
HCC-827,0.406,0.401,0.31,0.293,0.307,0.851,1.01,,1.18,0.893,0.771,0.662,,0.804,0.721,0.202,0.187,,0.246,0.215
LC-2-ad,0.487,0.406,0.406,0.393,0.306,0.901,0.843,0.864,1.03,0.931,0.81,0.811,0.687,0.803,0.724,0.836,0.835,0.754,0.821,0.861
NCI-H2170,0.733,0.702,0.466,0.709,0.616,1.02,1.03,1.03,0.94,1.04,0.718,0.69,0.55,0.764,0.668,0.86,0.811,0.581,0.825,0.761
SW 1573,0.179,0.147,0.191,0.129,0.143,0.995,0.925,0.894,0.975,0.822,0.737,0.557,0.559,0.54,0.551,,,,,
SK-MES-1,0.955,0.921,0.745,0.466,0.361,0.795,0.668,0.96,0.875,0.865,0.58,0.628,0.582,0.608,0.446,,,,,
NCI-H1648,,0.611,0.515,0.4,0.352,,,,,,,0.239,0.259,0.258,0.281,0.705,0.502,0.673,0.522,0.816
NCI-H1793,0.281,0.226,0.253,0.164,0.205,0.877,0.815,0.682,0.601,0.659,0.283,0.252,0.248,0.244,0.197,0.431,0.595,0.316,0.387,0.443
NCI-H1299,,,,,,1.09,1.1,1.16,1.07,1.02,,,,,,,,,,
LCLC-97TM1,0.202,0.29,0.225,0.143,0.19,0.891,0.793,0.91,1.03,0.921,0.372,0.447,0.542,0.476,0.482,0.177,0.188,0.0774,0.168,0.284
NCI-H1915,0.453,0.337,0.268,0.219,0.165,1.09,1.15,1.14,1.18,1.18,0.621,0.635,0.665,0.673,0.761,0.678,0.646,0.529,0.751,0.699
NCI-H661,0.365,0.378,0.432,0.389,0.404,1.11,0.965,1.04,1.05,1.04,0.751,0.689,0.722,0.676,0.76,,,,,
NCI-H2405,0.695,0.687,0.664,0.497,0.468,1.04,1.03,0.896,1.01,1.05,0.703,0.611,0.62,0.657,0.711,0.857,0.731,0.552,0.835,0.795
NCI-H2347,0.509,0.33,0.176,0.154,0.185,1.13,0.76,0.988,0.707,0.748,,0.347,0.483,0.552,0.378,0.778,0.728,0.56,0.79,0.83
NCI-H1651,0.666,0.555,0.541,0.526,0.498,0.809,0.803,0.894,0.891,0.812,0.615,0.724,0.65,0.66,0.733,0.497,0.455,0.433,0.557,0.477
H3255,0.572,0.777,0.579,0.514,0.411,1.26,0.954,0.72,0.742,0.899,0.676,0.627,0.532,0.621,0.53,1.02,0.86,0.848,0.954,0.844
